Measured values as given in patent US11795204B2 (Zealand Pharma A/S, priority 2012, dated 2023).
pEC50: −log10 of the molar value. Square brackets hold non-standard residues; d marks the D form. Peptide text beside a SMILES is read from it. Dab = NCC[C@H](N)C(=O)O; Aib = CC(C)(N)C(=O)O

Tests used:
[1] = Chemical stability assessment (RP-HPLC normalized purity); type: physicochemical; details: for Normalized purity pH 4.0 after 14 days: 1 mg/ml in 50 mM acetate buffer pH 4.0, 40° C.; for Normalized purity pH 7.5 after 14 days: 1 mg/ml in 50 mM phosphate buffer pH 7.5, 40° C.
Description: Samples were placed in glass vials and incubated at 40° C. The samples were analysed by reverse-phase HPLC on a C18 column with gradient elution using an acetonitrile/trifluoroacetic acid/water eluent system. The area-percentage (area-%) of the main peak after incubation time T=t (relative to time T=0) was detected by UV spectrometry at 220 nm. The purity was first determined as follows: Purity(area-%)=(area of main peak/total area of all peaks)×100. […] Normalized purity values in Table 2 were determined after 14 days of incubation.

[2] = Solubility assessment (turbidity absorbance at 325 nm); details: pH 7.5
Method in brief: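 Peptide stock 2 mg/ml (A280-quantified) in water at pH 2.5, diluted 1:1 into 100 mM acetate pH 4.0 or 100 mM phosphate pH 7.5. Absorbance at 280 and 325 nm read at ambient temperature, single samples (n=1).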

[3] = Assessment of physical stability (Thioflavin T fibril formation lag-time); type: physicochemical; details: 1 mg/ml, 50 mM phosphate pH 7.5, 40° C., 96 hours
Description: A solution containing 1 mg/ml of peptide, 40 μM ThT and 50 mM phosphate buffer, pH 7.5, was loaded in a 96-well black fluorescence plate (clear bottom) in triplicate. Data were collected at fixed intervals of 10 min, each preceded by 300 s of automixing (agitation), over a period of 96 hours at 40° C. The entire experiment was repeated, but without agitation. Physical stability, expressed as lag-time of fibril formation (in hours), was defined as the intersection between two linear regressions representing the initial stable phase and the growth phase.

human Glucagon-R = target: T1, human Glucagon-R (Homo sapiens, UniProt P47871); test: Glucagon receptor assay (cAMP induction, AlphaScreen); type: cell-based; details: HEK293 cells expressing the human Glucagon-R, 15 min at 37° C., read-out: GCG-R EC50 in vitro
T1 construct: expressed in transfected cells
Method in brief: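 Stable G418-selected clonal cells expressing the receptor were washed, then exposed to rising test peptide concentrations in IBMX-containing assay buffer for 15 min at 37° C. After lysis (≥10 min, room temperature), lysate was incubated 1 h with AlphaScreen donor/acceptor beads and cAMP content read.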

T1 sequence (P47871 26-477): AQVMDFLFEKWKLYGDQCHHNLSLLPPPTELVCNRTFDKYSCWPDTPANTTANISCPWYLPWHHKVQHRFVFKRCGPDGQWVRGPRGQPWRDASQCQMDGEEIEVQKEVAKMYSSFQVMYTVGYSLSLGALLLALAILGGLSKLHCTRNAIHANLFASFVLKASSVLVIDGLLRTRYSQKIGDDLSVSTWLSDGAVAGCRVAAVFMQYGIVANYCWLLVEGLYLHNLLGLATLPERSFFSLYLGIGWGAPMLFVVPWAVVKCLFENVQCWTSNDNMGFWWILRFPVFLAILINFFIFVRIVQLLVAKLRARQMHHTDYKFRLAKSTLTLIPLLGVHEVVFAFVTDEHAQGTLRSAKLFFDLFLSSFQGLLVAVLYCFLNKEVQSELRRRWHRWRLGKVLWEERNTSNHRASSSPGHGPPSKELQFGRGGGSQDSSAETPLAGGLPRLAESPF

## CC(C)C[C@H](NC(=O)[C@H](Cc1c[nH]c2ccccc12)NC(=O)[C@H](CCCCN)NC(=O)[C@@H](NC(=O)[C@H](Cc1ccccc1)NC(=O)[C@H](CCC(=O)O)NC(=O)[C@H](CCC(=O)O)NC(=O)[C@H](C)NC(=O)[C@H](CCCNC(=N)N)NC(=O)[C@H](C)NC(=O)C(C)(C)NC(=O)[C@H](CC(=O)O)NC(=O)[C@H](CC(C)C)NC(=O)[C@H](Cc1ccc(O)cc1)NC(=O)[C@H](CCCCN)NC(=O)[C@H](CO)NC(=O)[C@H](Cc1ccc(O)cc1)NC(=O)[C@H](CC(=O)O)NC(=O)[C@H](CO)NC(=O)[C@@H](NC(=O)[C@H](Cc1ccccc1)NC(=O)[C@@H](NC(=O)CNC(=O)[C@H](CCC(N)=O)NC(=O)[C@H](CO)NC(=O)[C@@H](N)Cc1c[nH]cn1)[C@@H](C)O)[C@@H](C)O)C(C)C)C(=O)N[C@@H](CCC(=O)O)C(=O)N[C@@H](CO)C(=O)N[C@H](C(=O)O)[C@@H](C)O [Compound 21]
[1]
  Normalized purity pH 4.0 after 14 days: 89.8%
  Normalized purity pH 7.5 after 14 days: 93.5%
[2]; phosphate buffer
  solubility: ≥ 1000 µg/mL
[3]; with agitation
  Physical Stability at pH 7.5 (agitated): FND
[3]; without agitation
  Physical Stability at pH 7.5 (non-agitated): FND

## CC(C)C[C@H](NC(=O)[C@H](Cc1c[nH]c2ccccc12)NC(=O)[C@H](CCC(=O)O)NC(=O)[C@@H](NC(=O)[C@H](Cc1ccccc1)NC(=O)[C@H](CO)NC(=O)[C@H](CCCCN)NC(=O)[C@H](C)NC(=O)[C@H](CCCNC(=N)N)NC(=O)[C@H](C)NC(=O)C(C)(C)NC(=O)[C@H](CC(=O)O)NC(=O)[C@H](CC(C)C)NC(=O)[C@H](Cc1ccc(O)cc1)NC(=O)[C@H](CCCCN)NC(=O)[C@H](CO)NC(=O)[C@H](Cc1ccc(O)cc1)NC(=O)[C@H](CC(=O)O)NC(=O)[C@H](CO)NC(=O)[C@@H](NC(=O)[C@H](Cc1ccccc1)NC(=O)[C@@H](NC(=O)CNC(=O)[C@H](CCC(N)=O)NC(=O)[C@H](CO)NC(=O)[C@@H](N)Cc1c[nH]cn1)[C@@H](C)O)[C@@H](C)O)C(C)C)C(=O)N[C@@H](CCC(=O)O)C(=O)N[C@@H](CCCCN)C(=O)N[C@H](C(=O)O)[C@@H](C)O [Compound 29] (H-HSQGTFTSDYSKYLD[Aib]ARAKSFVEWLEKT-OH)
Human Glucagon-R
  pEC50: 10.64
[1]
  Normalized purity pH 4.0 after 14 days: 91%
  Normalized purity pH 7.5 after 14 days: 91.6%
[2]
  solubility: ≥ 1000 µg/mL

## CC(C)C[C@H](NC(=O)[C@H](Cc1c[nH]c2ccccc12)NC(=O)[C@H](CCCCN)NC(=O)[C@@H](NC(=O)[C@H](Cc1ccccc1)NC(=O)[C@H](CO)NC(=O)[C@H](CCC(=O)O)NC(=O)[C@H](C)NC(=O)[C@H](CCCNC(=N)N)NC(=O)[C@H](C)NC(=O)C(C)(C)NC(=O)[C@H](CC(=O)O)NC(=O)[C@H](CC(C)C)NC(=O)[C@H](Cc1ccc(O)cc1)NC(=O)[C@H](CCCCN)NC(=O)[C@H](CO)NC(=O)[C@H](Cc1ccc(O)cc1)NC(=O)[C@H](CC(=O)O)NC(=O)[C@H](CO)NC(=O)[C@@H](NC(=O)[C@H](Cc1ccccc1)NC(=O)[C@@H](NC(=O)[C@@H](C)NC(=O)[C@H](CCC(N)=O)NC(=O)[C@H](CO)NC(=O)[C@@H](N)Cc1c[nH]cn1)[C@@H](C)O)[C@@H](C)O)C(C)C)C(=O)N[C@@H](CCC(=O)O)C(=O)N[C@@H](CO)C(=O)N[C@H](C(=O)O)[C@@H](C)O [Compound 22] (H-HSQ[dA]TFTSDYSKYLD[Aib]ARAESFVKWLEST-OH)
Human Glucagon-R
  pEC50: 10.62
[1]
  Normalized purity pH 4.0 after 14 days: 91.1%
  Normalized purity pH 7.5 after 14 days: 95.3%
[2]
  solubility: ≥ 1000 µg/mL

## H-HSQGTFTSDYSKYLDEARAKDFVEWLEKT-OH [Compound 5]
Human Glucagon-R
  pEC50: 9.77
[1]
  Normalized purity pH 4.0 after 14 days: 91.8%
  Normalized purity pH 7.5 after 14 days: 89.6%
[2]
  solubility: ≥ 1000 µg/mL

## CC(=O)NCC[C@H](NC(=O)[C@H](CO)NC(=O)[C@@H](N)Cc1c[nH]cn1)C(=O)NCC(=O)N[C@H](C(=O)N[C@@H](Cc1ccccc1)C(=O)N[C@H](C(=O)N[C@@H](CO)C(=O)N[C@@H](CC(=O)O)C(=O)N[C@@H](Cc1ccc(O)cc1)C(=O)N[C@@H](CO)C(=O)N[C@@H](CCCCN)C(=O)N[C@@H](Cc1ccc(O)cc1)C(=O)N[C@@H](CC(C)C)C(=O)N[C@@H](CC(=O)O)C(=O)NC(C)(C)C(=O)N[C@@H](C)C(=O)N[C@@H](CCCNC(=N)N)C(=O)N[C@@H](C)C(=O)N[C@@H](CCC(=O)O)C(=O)N[C@@H](CO)C(=O)N[C@@H](Cc1ccccc1)C(=O)N[C@H](C(=O)N[C@@H](CCCCN)C(=O)N[C@@H](Cc1c[nH]c2ccccc12)C(=O)N[C@@H](CC(C)C)C(=O)N[C@@H](CCC(=O)O)C(=O)N[C@@H](CO)C(=O)N[C@H](C(=O)O)[C@@H](C)O)C(C)C)[C@@H](C)O)[C@@H](C)O [Compound 32] (H-HS[Dab](Ac)GTFTSDYSKYLD[Aib]ARAESFVKWLEST-OH)
Human Glucagon-R
  pEC50: 11.03
[1]
  Normalized purity pH 4.0 after 14 days: 91.2%
  Normalized purity pH 7.5 after 14 days: 96.3%
[2]
  solubility: ≥ 1000 µg/mL
